Measured values from US6716881B2, “Carbanilides used as pesticides” (Bayer Aktiengesellschaft, priority 1996, dated 2004).

Experiments:
[1] = test system: Venturia inaequalis; assay: Venturia test (apple)/protective (Example B, spray liquor concentration); format: in vivo; details: protective, 100 ppm in spray liquor, evaluation 12 days after inoculation
Description: Venturia Test (Apple)/Protective
To produce a suitable preparation of active compound, 1 part by weight of active compound is mixed with the stated amounts of solvent and emulsifier, and the concentrate is diluted with water to the desired concentration.
To test for protective activity, young plants are sprayed with the preparation of active compound until dew-moist. After the spray-coating has dried on, the plants are inoculated with an aqueous conidia suspension of the causative organism of apple scab Venturia inaequalis and then remain in an incubation cabin at 20° C. and 100% relative atmospheric humidity for 1 day.
The plants are then placed in a greenhouse at 23° C. and a relative atmospheric humidity of approximately 70%.
Evaluation is carried out 12 days after the inoculation. 0% means an efficacy which corresponds to that of the untreated control, while an efficacy of 100% means that no infection is observed.

[2] = test system: Coriolus versicolor; assay: Inhibitory test with giant colonies of Basidiomycetes (Coriolus versicolor); format: cell-based; details: after 3 or 7 days at 26° C., vs untreated control; for Inhibition of the growth of the hypha in % with Coriolus versicolor at an active compound concentration of 1 ppm: 1 ppm in agar; for Inhibition of the growth of the hypha in % with Coriolus versicolor at an active compound concentration of 3 ppm: 3 ppm in agar; for Inhibition of the growth of the hypha in % with Coriolus versicolor at an active compound concentration of 6 ppm: 6 ppm in agar
Description: (§1) Inhibitory Test with Giant Colonies of Basidiomycetes.
(§2) To produce a suitable preparation of active compound, 0.2 parts by weight of active compound are admixed with 99.8 parts by weight of the abovementioned solvent.
(§3) An agar which has been prepared using malt extract peptone is mixed in the liquid state with the preparation of active compound at the particular desired application rate. After the agar has set, the resulting nutrient medium is incubated at 26° C. with pieces of mycelium which had been punched out of colonies of Coniophora puteana or Coriolus versicolor.
(§4) Evaluation is carried out after 3 or 7 days' storage at 26° C. by measuring the growth of the hypha and scoring the resulting inhibition in percent in comparison to the untreated control. 0% means an inhibition of growth which corresponds to that of the untreated control, while an inhibition of growth of 100% means that no growth of the hypha is observed.

[3] = test system: Coniophora puteana; assay: Inhibitory test with giant colonies of Basidiomycetes (Coniophora puteana); format: cell-based; details: after 3 or 7 days at 26° C., vs untreated control; for Inhibition of the growth of the hypha in % with Coniophora puteana at an active compound concentration of 1 ppm: 1 ppm in agar; for Inhibition of the growth of the hypha in % with Coniophora puteana at an active compound concentration of 3 ppm: 3 ppm in agar; for Inhibition of the growth of the hypha in % with Coniophora puteana at an active compound concentration of 6 ppm: 6 ppm in agar
Description: as §1, §2, §3, §4

| SMILES | Efficacy in % at an active compound concentration in the spray liquor of 100 ppm [1] [%] | Inhibition of the growth of the hypha in % with Coriolus versicolor at an active compound concentration of 1 ppm [2] [%] | Inhibition of the growth of the hypha in % with Coriolus versicolor at an active compound concentration of 3 ppm [2] [%] | Inhibition of the growth of the hypha in % with Coriolus versicolor at an active compound concentration of 6 ppm [2] [%] | Inhibition of the growth of the hypha in % with Coniophora puteana at an active compound concentration of 1 ppm [3] [%] | Inhibition of the growth of the hypha in % with Coniophora puteana at an active compound concentration of 3 ppm [3] [%] | Inhibition of the growth of the hypha in % with Coniophora puteana at an active compound concentration of 6 ppm [3] [%] |
| --- | --- | --- | --- | --- | --- | --- | --- |
| Cc1nc(C(F)(F)F)c(C(=O)Nc2ccccc2Oc2ccccc2)s1 | 94 | – | – | – | – | – | – |
| Cc1nc(C(F)(F)F)c(C(=O)Nc2ccccc2C=Cc2ccccc2)s1 [Example 5] | – | 70 | 90 | 100 | 70 | 80 | 100 |
| Cc1nn(C)cc1C(=O)Nc1ccccc1C=Cc1ccccc1 [Example 18] | – | 70 | 100 | 100 | 70 | 100 | 100 |
| Cc1nn(C)c(Cl)c1C(=O)Nc1ccccc1CSc1ccccc1 [Example 39] | – | 90 | 100 | 100 | 70 | 80 | 90 |
| Cc1nc(C(F)(F)F)c(C(=O)Nc2ccccc2CSc2ccccc2)s1 [Example 40] | – | 40 | 70 | 90 | 50 | 60 | 70 |
| Cc1ccc(SCc2ccccc2NC(=O)c2c(C)nn(C)c2Cl)cc1 [Example 45] | – | 90 | 100 | 100 | 70 | 80 | 90 |
| Cc1ccc(OCc2ccccc2NC(=O)c2cn(C)nc2C(F)(F)F)c(C)c1 [Example 52] | – | 90 | 100 | 100 | 80 | 90 | 100 |
| CC1=C(C(=O)Nc2ccccc2OCc2ccc(C)cc2C)SCCO1 [Example 78] | – | 90 | 90 | 100 | 70 | 80 | 90 |
| Cc1nn(C)cc1C(=O)Nc1ccccc1CSc1ccc(Cl)cc1 [Example 81] | – | 90 | 90 | 100 | 70 | 90 | 100 |
| Cc1nn(C)c(Cl)c1C(=O)Nc1ccccc1CSc1ccc(Cl)cc1 [Example 84] | – | 90 | 100 | 100 | 80 | 80 | 100 |
| Cc1nc(C(F)(F)F)c(C(=O)Nc2ccccc2CSc2ccc(Cl)cc2)s1 [Example 85] | – | 70 | 70 | 90 | 70 | 80 | 80 |
| Cc1ccc(OCc2ccccc2NC(=O)c2cn(C)nc2C(F)F)cc1 [Example 119] | – | 100 | 100 | 100 | 100 | 100 | 100 |
| Cn1cc(C(=O)Nc2ccccc2COc2ccccc2)c(C(F)F)n1 [Example 123] | – | 100 | 100 | 100 | 100 | 100 | 100 |
| Cc1cccc(OCc2ccccc2NC(=O)c2cn(C)nc2C(F)F)c1 [Example 139] | – | 100 | 100 | 100 | 100 | 100 | 100 |
| CC1=C(C(=O)Nc2ccccc2COc2ccccc2)SCCO1 [Example 141] | – | 90 | 100 | 100 | 80 | 100 | 100 |
| CC1=C(C(=O)Nc2ccccc2COc2cccc(C)c2)SCCO1 [Example 142] | – | 90 | 90 | 100 | 70 | 90 | 100 |
| CC1=C(C(=O)Nc2ccccc2COc2ccc(C)cc2)SCCO1 [Example 143] | – | 100 | 100 | 100 | 80 | 90 | 100 |
| CC1=C(C(=O)Nc2ccccc2COc2ccccc2C)SCCO1 [Example 144] | – | 90 | 100 | 100 | 70 | 90 | 100 |
